Measurements: article PMC11303713, “Allosteric inhibition of CFTR gating by CFTRinh-172 binding in the pore” (Nature Communications, 2024)
“Also recorded” adds a separate entry of the source.

Experiments:
[1] = tested on: E1371Q- and W1145Y/E1371Q-CFTR; experiment: Intracellular SCN- blockade, I-V voltage ramps on excised patch; format: cell-based; conditions: 2 mM or 10 mM cytoplasmic SCN-
Text: Also, Sonawane and Verkman
(2008), which carried out a structure-activity relationship study, could have been considered to understand whether the moieties of CFTRinh-172 that were found important for inhibitory activity correspond to interactions with specific parts of CFTR protein.
We thank the reviewer for pointing this out. Now, these two papers are both cited, and their contents are incorporated into the 2nd and 10th paragraph of the Discussion.
4) As a control, a CFTR inhibitor having a completely different structure could have been used to check that potency was not affected by mutagenesis.
Most CFTR inhibitors block CFTR pore from the cytoplasmic side in a voltage-dependent manner, such as glibenclamide (Sheppard and Robinson, 1997), NPPB (Walsh et al., 1999), and DNDS (Linsdell and Hanrahan, 1996). Since these CFTR inhibitors likely block the open channel by traveling down the internal vestibule to the narrow region of the pore, the mutations introduced to the Inh-172’s binding site, which is just below the narrow region, would inevitably affect the actions of these CFTR blockers. […]
Comparison of intracellular SCN- blockade on E1371Q- and W1145Y/E1371Q-CFTR. […] Fraction of block was calculated according to the equation “Fraction of block = 1 – (ISCN)/I0” where ISCN and I0 represent the blocked and unblocked current at a given voltage on the same patch. […]

[2] = tested on: "lock-opened" CFTR with dimerized NBDs; design: method as in Zhou et al., 2002; conditions: ref Zhou et al., 2002; cited from earlier work

| Structure (SMILES) | potency of SCN- (fraction of block), E1371Q- vs W1145Y/E1371Q-CFTR [1] | off-rate [2] |
| --- | --- | --- |
| N#CS [SCN-, thiocyanate] | barely affected; also recorded: does not differ |  |
| COc1ccc(Cl)cc1C(=O)NCCc1ccc(S(=O)(=O)NC(=O)NC2CCCCC2)cc1 [glibenclamide] |  | ~ 10 s-1 |
